Results taken from ChEMBL document CHEMBL1649076, “Discovery of 5-chloro-N2-[(1S)-1-(5-fluoropyrimidin-2-yl)ethyl]-N4-(5-methyl-1H-pyrazol-3-yl)pyrimidine-2,4-diamine (AZD1480) as a novel inhibitor of the Jak/Stat pathway” (J Med Chem, 2011).
Active and inactive are the calls of the source. The calls are words filed in the database; no cut-off is given here.

Key:
SW-620 = test: Cell cycle arrest in human SW620 cells assessed as accumulation at G2/M phase at 3.3 uM after 24 hrs by flow cytometry; format: functional, cell-based
[1] = biological target: T1, Signal transducer and activator of transcription 5A (Homo sapiens) (UniProt P42229); details: HEL, 0.3 uM
T1 sequence (whole entry): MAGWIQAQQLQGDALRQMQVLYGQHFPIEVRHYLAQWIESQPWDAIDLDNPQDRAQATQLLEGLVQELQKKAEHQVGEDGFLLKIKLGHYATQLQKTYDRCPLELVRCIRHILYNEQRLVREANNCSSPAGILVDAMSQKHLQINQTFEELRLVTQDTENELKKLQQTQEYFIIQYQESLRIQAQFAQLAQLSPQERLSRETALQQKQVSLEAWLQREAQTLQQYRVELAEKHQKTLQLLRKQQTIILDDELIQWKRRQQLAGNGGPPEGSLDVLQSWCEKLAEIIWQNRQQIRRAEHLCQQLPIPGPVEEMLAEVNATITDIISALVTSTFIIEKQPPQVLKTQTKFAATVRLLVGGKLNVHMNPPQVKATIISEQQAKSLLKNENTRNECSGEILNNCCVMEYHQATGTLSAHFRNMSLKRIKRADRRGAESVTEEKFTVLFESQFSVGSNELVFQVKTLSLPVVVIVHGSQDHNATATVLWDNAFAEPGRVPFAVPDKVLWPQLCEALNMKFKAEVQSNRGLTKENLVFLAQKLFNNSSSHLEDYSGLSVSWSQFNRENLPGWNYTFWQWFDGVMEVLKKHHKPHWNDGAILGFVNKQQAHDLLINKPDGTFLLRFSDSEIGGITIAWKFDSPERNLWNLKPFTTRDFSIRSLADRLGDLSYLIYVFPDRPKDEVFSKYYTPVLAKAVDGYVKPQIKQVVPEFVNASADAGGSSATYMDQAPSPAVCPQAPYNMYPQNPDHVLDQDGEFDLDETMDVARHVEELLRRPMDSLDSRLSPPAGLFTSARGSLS
Description: Inhibition of Stat5 phosphorylation in human HEL cells at 0.3 uM after 5 mins by Western blotting

BaF3 = test: Antitumor activity against mouse BA/F3 cells expressing Tel-JAK2-luc xenografted in NCr mouse assessed as reduction of bioluminescent signal at 50 mg/kg, po bid measured on day 9 post-tumor cell implantation relative to control; format: functional
Mus musculus [2] = test: Antitumor activity against mouse BA/F3 cells expressing Tel-JAK2 xenografted in NCr mouse assessed as reduction of phosphorylated Stat5 level in spleen at 30 mg/kg, po after 12 hrs by Western blotting; format: functional, organism-based; set-up: dose 30 mg/kg; details: BaF3
[3] = biological target: Signal transducer and activator of transcription 3 (Homo sapiens) (UniProt P40763); details: HEL, 0.3 uM
Description: Inhibition of Stat3 phosphorylation in human HEL cells at 0.3 uM after 5 mins by Western blotting

Mus musculus [4] = test: Antitumor activity against mouse BA/F3 cells expressing Tel-JAK2 xenografted in po dosed NCr mouse assessed as reduction of phosphorylated Stat5 level in spleen by Western blotting; format: functional, organism-based; details: BaF3
Mus musculus [5] = test: Antitumor activity against mouse BA/F3 cells expressing Tel-JAK2 xenografted in NCr mouse assessed as reduction of phosphorylated Stat5 level in spleen at 10 mg/kg, po after 12 hrs by Western blotting; format: functional, organism-based; set-up: dose 10 mg/kg; details: BaF3

Signal transducer and activator of transcription 3 (Homo sapiens), sequence (P40763 whole entry): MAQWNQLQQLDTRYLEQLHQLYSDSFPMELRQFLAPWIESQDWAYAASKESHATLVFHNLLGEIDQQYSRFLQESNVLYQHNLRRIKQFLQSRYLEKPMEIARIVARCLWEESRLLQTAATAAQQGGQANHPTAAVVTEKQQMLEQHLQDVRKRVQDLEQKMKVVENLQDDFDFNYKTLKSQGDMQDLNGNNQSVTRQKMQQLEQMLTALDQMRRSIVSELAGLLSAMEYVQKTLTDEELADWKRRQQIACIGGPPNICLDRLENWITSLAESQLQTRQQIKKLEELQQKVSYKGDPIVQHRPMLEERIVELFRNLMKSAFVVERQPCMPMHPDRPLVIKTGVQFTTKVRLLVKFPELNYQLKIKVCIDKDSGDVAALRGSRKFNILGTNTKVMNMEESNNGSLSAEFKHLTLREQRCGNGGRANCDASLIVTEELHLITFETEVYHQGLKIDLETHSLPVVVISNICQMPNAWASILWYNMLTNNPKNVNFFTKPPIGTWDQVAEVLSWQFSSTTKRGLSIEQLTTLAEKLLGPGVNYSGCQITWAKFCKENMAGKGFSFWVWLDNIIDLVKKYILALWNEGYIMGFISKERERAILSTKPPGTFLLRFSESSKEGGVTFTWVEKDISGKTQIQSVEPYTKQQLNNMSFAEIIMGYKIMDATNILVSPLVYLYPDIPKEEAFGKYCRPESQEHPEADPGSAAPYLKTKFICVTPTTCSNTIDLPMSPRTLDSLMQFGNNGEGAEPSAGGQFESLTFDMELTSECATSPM

inhibition [1]: Active
inhibition [3]: Active
Compound: Cc1cc(Nc2nc(N[C@@H](C)c3ncc(F)cn3)ncc2Cl)[nH]n1
Activity (SW-620): Active
Activity (BaF3): Dose-dependent effect
Activity (Mus musculus [2]): Active
Activity (Mus musculus [4]): Dose-dependent effect
Activity (Mus musculus [5]): inactive
